Experimental data published in ChEMBL document CHEMBL4800728, “Data for DCP probe JNJ-54119936” (2021).

Assays:
[1] = target: Sigma intracellular receptor 2 (Homo sapiens, UniProt Q5BJF2); experiment: GPCRScan assay: inhibition of Sigma 2; parameters: radioligand conc. used [nm] 5.0, parental cells HEKT
[2] = target: Activin receptor type-1B (Homo sapiens) (UniProt P36896); experiment: Alk4 Invitrogen kinase panel; conditions: Compound concentration 10.0 uM
[3] = target: Aurora kinase A (Homo sapiens) (UniProt O14965); experiment: Aurora_A Invitrogen kinase panel; conditions: Compound concentration 10.0 uM
Chain of Aurora kinase A (Homo sapiens) (O14965 whole entry): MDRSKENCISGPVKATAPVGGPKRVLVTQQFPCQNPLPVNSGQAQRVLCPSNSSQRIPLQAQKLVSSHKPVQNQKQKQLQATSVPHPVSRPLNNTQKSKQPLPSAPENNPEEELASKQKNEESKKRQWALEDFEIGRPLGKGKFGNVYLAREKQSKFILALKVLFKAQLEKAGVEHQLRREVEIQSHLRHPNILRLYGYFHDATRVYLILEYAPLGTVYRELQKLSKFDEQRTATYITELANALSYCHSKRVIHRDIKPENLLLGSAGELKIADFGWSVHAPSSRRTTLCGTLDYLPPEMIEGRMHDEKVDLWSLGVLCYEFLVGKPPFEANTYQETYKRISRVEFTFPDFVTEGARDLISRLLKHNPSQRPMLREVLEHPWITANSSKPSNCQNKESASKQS

[4] = target: Tyrosine-protein kinase Blk (Homo sapiens) (UniProt P51451); experiment: Blk Invitrogen kinase panel; conditions: Compound concentration 10.0 uM
Chain of Tyrosine-protein kinase Blk (Homo sapiens) (P51451 2-505 limits assumed): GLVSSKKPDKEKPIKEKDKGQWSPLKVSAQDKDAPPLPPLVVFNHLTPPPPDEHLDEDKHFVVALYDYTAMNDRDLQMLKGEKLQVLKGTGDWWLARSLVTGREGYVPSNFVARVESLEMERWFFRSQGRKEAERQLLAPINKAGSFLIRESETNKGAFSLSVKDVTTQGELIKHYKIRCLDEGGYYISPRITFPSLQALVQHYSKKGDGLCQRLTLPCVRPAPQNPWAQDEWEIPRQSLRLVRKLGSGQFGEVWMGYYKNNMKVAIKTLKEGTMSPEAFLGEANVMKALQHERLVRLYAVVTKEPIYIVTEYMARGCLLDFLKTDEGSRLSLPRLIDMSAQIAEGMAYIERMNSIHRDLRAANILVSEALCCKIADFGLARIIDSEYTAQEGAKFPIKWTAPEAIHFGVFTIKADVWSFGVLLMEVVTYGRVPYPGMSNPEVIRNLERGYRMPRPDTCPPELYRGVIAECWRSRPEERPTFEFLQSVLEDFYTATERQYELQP

[5] = target: Peroxisome proliferator-activated receptor alpha (Homo sapiens) (UniProt Q07869); experiment: (§1) PPARalpha In-house nuclear receptor screen; conditions: Compound concentration 3.0 uM
Chain of Peroxisome proliferator-activated receptor alpha (Homo sapiens) (Q07869 whole entry): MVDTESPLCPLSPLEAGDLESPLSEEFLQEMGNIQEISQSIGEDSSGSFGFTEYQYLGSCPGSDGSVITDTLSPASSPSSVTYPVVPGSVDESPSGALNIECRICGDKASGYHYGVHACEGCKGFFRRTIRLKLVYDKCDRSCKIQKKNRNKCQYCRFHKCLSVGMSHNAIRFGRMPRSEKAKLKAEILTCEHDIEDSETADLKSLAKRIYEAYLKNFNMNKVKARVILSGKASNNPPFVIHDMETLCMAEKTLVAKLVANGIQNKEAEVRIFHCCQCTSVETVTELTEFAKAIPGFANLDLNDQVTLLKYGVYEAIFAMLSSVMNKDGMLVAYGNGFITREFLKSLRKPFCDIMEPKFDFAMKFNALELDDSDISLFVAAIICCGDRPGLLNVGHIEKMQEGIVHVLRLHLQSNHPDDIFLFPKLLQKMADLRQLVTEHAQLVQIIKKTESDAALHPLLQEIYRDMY

[6] = target: Peroxisome proliferator-activated receptor alpha (Homo sapiens, UniProt Q07869); experiment: as §1
Chain of Peroxisome proliferator-activated receptor alpha (Q07869 whole entry): as above

[7] = target: T1, Peroxisome proliferator-activated receptor gamma (Homo sapiens) (UniProt P37231); experiment: (§2) PPARgamma In-house nuclear receptor screen; conditions: Compound concentration 3.0 uM
T1 sequence (whole entry): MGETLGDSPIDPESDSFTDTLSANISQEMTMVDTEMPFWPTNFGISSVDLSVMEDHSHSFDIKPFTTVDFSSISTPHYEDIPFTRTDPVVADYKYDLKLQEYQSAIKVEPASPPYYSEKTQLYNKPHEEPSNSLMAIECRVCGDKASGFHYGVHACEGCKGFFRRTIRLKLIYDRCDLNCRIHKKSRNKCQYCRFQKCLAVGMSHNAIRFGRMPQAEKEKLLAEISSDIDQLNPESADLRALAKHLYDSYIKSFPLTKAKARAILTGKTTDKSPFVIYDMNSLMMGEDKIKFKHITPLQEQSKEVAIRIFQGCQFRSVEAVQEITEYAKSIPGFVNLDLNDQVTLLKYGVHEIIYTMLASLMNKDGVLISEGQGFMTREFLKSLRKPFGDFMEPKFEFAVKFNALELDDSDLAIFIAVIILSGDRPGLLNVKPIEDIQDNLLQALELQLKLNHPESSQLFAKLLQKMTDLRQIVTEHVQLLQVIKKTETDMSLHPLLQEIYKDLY

[8] = target: Peroxisome proliferator-activated receptor gamma (Homo sapiens, UniProt P37231); experiment: as §2
[9] = target: T2, Oxysterols receptor LXR-beta (Homo sapiens) (UniProt P55055); experiment: (§3) LXRbeta In-house nuclear receptor screen; conditions: Compound concentration 3.0 uM
T2 sequence (whole entry): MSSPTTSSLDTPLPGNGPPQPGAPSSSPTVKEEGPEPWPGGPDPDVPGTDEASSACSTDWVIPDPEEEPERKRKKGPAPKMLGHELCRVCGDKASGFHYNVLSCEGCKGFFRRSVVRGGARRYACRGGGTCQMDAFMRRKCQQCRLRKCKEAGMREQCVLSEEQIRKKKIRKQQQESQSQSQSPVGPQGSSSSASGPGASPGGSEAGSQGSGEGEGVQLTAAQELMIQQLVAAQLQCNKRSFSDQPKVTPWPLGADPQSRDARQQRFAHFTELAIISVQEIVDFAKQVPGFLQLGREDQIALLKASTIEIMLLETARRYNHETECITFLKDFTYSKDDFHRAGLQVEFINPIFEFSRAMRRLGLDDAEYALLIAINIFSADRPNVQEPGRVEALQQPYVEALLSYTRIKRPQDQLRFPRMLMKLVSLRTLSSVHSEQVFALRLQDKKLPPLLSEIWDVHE

[10] = target: Oxysterols receptor LXR-beta (Homo sapiens, UniProt P55055); experiment: as §3
[11] = target: T3, Estrogen receptor (Homo sapiens) (UniProt P03372); experiment: ERalpha In-house nuclear receptor screen; conditions: Compound concentration 3.0 uM
T3 sequence (whole entry): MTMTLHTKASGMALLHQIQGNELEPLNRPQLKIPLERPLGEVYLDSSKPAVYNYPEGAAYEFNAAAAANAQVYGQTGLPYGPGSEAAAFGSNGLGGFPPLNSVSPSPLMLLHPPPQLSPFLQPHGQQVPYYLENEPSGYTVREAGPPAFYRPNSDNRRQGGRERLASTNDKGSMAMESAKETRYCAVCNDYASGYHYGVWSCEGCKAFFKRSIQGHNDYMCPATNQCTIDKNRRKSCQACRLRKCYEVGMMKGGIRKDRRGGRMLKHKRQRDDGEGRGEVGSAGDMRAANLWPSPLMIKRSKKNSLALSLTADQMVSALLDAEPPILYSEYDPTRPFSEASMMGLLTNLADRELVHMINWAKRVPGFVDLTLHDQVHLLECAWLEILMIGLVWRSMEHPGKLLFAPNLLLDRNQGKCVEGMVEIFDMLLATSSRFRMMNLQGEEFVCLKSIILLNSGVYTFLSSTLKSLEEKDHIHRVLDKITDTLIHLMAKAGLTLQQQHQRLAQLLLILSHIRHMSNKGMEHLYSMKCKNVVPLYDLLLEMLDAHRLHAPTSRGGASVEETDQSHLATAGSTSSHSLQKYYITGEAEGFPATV

[12] = target: voltage-dependent K+ channel (Homo sapiens, UniProt O43525+O43526+O95259+P16389+P17658+P22001+P22459+P22460+P48547+P51787+P56696+Q03721+Q09470+Q12809+Q14003+Q14721+Q16322+Q6PIU1+Q8NCM2+Q8TAE7+Q8TDN1+Q8TDN2+Q92953+Q96KK3+Q96L42+Q96PR1+Q96RP8+Q9BQ31+Q9H252+Q9H3M0+Q9NR82+Q9NS40+Q9NSA2+Q9NZV8+Q9UIX4+Q9UJ96+Q9UK17+Q9ULD8+Q9ULS6+Q9UQ05); experiment: K+ channel (Volt-dependent) CEREP screen; type: protein assay; conditions: compound concentration 10 uM
[13] = target: T3, Estrogen receptor (Homo sapiens); experiment: ERalpha Indigo Bioscience nuclear receptor screen
[14] = target: Thyroid hormone receptor beta (Homo sapiens) (UniProt P10828); experiment: TRbeta Indigo Bioscience nuclear receptor screen; conditions: Compound concentration 0.3 uM
Chain of Thyroid hormone receptor beta (Homo sapiens) (P10828 whole entry): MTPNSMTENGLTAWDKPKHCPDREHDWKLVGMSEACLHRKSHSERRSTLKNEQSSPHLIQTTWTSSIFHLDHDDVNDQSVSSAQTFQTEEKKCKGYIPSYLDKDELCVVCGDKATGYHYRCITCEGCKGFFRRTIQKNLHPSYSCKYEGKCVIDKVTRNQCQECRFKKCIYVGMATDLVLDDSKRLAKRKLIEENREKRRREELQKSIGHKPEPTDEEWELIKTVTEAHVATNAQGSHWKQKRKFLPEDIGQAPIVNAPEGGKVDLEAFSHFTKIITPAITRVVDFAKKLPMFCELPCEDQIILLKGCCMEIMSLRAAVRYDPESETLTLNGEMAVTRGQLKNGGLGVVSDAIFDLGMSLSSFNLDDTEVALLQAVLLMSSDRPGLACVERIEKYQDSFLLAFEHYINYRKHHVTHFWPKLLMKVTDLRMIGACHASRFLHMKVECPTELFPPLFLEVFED

[15] = target: Muscarinic acetylcholine receptor M2 (Homo sapiens) (UniProt P08172); conditions: Compound concentration 10.0 uM
Chain of Muscarinic acetylcholine receptor M2 (Homo sapiens) (P08172 whole entry): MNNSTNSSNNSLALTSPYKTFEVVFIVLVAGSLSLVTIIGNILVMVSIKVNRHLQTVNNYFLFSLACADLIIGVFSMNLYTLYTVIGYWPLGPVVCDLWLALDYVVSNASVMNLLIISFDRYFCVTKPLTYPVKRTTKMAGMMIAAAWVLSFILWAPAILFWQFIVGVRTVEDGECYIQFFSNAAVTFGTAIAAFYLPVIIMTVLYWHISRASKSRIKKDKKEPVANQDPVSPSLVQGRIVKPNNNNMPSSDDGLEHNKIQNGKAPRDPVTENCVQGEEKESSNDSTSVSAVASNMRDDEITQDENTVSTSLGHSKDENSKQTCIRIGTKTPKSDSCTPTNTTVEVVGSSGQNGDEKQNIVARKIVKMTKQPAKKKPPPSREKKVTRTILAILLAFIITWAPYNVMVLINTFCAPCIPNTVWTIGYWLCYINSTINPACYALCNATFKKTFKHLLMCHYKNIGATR

[16] = target: GABA-A receptor; anion channel (Rattus norvegicus) (UniProt O09028+P15431+P18506+P18508+P19969+P20236+P23574+P23576+P28471+P28473+P30191+P62813+P63079+P63138+Q91ZM7+Q9ES14); conditions: Compound concentration 10.0 uM

Chain of Sigma intracellular receptor 2 (Q5BJF2 whole entry): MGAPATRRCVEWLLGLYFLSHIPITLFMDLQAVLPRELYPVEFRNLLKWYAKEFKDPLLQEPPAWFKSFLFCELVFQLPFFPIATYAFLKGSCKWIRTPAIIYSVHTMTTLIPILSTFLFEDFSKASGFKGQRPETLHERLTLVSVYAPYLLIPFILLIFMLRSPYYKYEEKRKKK
Chain of Activin receptor type-1B (Homo sapiens) (P36896 whole entry): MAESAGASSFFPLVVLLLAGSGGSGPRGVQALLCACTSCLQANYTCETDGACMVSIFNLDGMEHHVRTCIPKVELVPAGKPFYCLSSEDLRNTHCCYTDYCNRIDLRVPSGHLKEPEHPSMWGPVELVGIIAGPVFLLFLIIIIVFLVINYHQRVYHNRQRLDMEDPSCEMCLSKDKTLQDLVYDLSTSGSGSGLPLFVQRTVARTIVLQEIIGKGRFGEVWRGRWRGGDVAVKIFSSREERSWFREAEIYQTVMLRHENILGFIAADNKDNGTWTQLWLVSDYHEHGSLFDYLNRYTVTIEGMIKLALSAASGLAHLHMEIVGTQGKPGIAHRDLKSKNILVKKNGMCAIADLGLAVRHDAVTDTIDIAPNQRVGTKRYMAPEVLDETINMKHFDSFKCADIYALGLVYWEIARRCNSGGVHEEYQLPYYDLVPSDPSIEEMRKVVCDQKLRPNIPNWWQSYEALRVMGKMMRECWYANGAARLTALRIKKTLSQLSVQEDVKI

Ki ([1]; read-out: Ki): 0.637 µM | Ki ([1]; read-out: pKi (converted)): 0.603 µM | inhibition [2]: -5% | inhibition [3]: 9% | inhibition [4]: 0% | inhibition [5]: 17% | IC50 [6]: ~5 µM | inhibition [7]: 28.2% | IC50 [8]: 5.4 µM | inhibition [9]: 10% | IC50 [10]: ~5 µM | inhibition [11]: 16.8% | inhibition at 10 µM [12]: 15% (not active) | inhibition ([13]; Compound concentration 0.3 uM): -1.2% | inhibition ([13]; Compound concentration 1.0 uM): 0.61% | inhibition ([13]; Compound concentration 3.0 uM): -3.01% | inhibition [14]: 1.13% | inhibition [15]: 1.16% | inhibition [16]: 10.3%
SMILES: COc1nc2ccc([C@@](O)(c3ccccc3)C3CCN(C(C)=O)CC3)cc2c(Cl)c1Cc1ccc(-n2cccn2)cc1 [JNJ-54119936]
